Assay results as given in PMC10782225 (The FASEB Journal, 2023).
Where two headings read alike, the source gives them in different places.

Experiments:
[1] = target: T1, Inner pocket mutant α7β2‐nAChR (β2[S108T, V111L,W120Y] at both α7(+)/(−)β2 subunit interfaces) (Homo sapiens, UniProt P17787+P36544, S133T/V136L/W145Y); test: cell-based; settings: SEM; for koff: read-out: k off, “Inner pocket” α7β2‐nAChR; for kon: read-out: k on, “Inner pocket” α7β2‐nAChR
T1 construct: expressed in transfected cells; host or cells: Xenopus laevis oocytes, cRNA injection

[2] = target: T2, human α7β2‐nAChR (Homo sapiens, UniProt P17787+P36544); test: cell-based
T2 construct: expressed in transfected cells; host or cells: Xenopus laevis oocytes, cRNA injection

[3] = target: T3, human α7‐only‐nAChR (Homo sapiens, UniProt P36544); test: cell-based; settings: SEM; for koff: read-out: k off α7‐only; for kon: read-out: k on α7‐only
T3 construct: expressed in transfected cells; host or cells: Xenopus laevis oocytes, cRNA injection

[4] = target: T4, Outer pocket mutant α7β2‐nAChR (β2[K79T,F119Q] at both α7(+)/(−)β2 subunit interfaces) (Homo sapiens, UniProt P17787+P36544, F144Q/K104T); test: cell-based; settings: SEM; for koff: read-out: k off, “Outer pocket” α7β2‐nAChR; for kon: read-out: k on, “Outer pocket” α7β2‐nAChR
T4 construct: expressed in transfected cells; host or cells: Xenopus laevis oocytes, cRNA injection

[5] = target: T5, Inner pocket mutant α7β2‐nAChR (β2[S108T, V111L,W120Y]) (Homo sapiens, UniProt P17787+P36544, S133T/V136L/W145Y); test: ACh concentration‐response curve, TEVC, inner pocket α7β2‐nAChR; assay type: cell-based; settings: mean ± SEM of 15–19 oocytes
T5 construct: expressed in transfected cells; host or cells: Xenopus laevis oocytes, cRNA injection

[6] = target: T6, Outer pocket mutant α7β2‐nAChR (β2[K79T,F119Q]) (Homo sapiens, UniProt P17787+P36544, F144Q/K104T); test: ACh concentration‐response curve, TEVC, outer pocket α7β2‐nAChR; assay type: cell-based; settings: mean ± SEM of 15–19 oocytes
T6 construct: expressed in transfected cells; host or cells: Xenopus laevis oocytes, cRNA injection

[7] = target: T7, α3β4‐nAChR (Homo sapiens, UniProt P30926+P32297); assay type: cell-based
T7 construct: expressed in transfected cells; host or cells: Xenopus laevis oocytes, cRNA injection

[8] = target: T8, α9α10‐nAChR (Homo sapiens, UniProt Q9GZZ6+Q9UGM1); test: cell-based
T8 construct: expressed in transfected cells; host or cells: Xenopus laevis oocytes, cRNA injection

[9] = target: T9, α3β2‐nAChR (Homo sapiens, UniProt P17787+P32297); assay type: cell-based
T9 construct: expressed in transfected cells; host or cells: Xenopus laevis oocytes, cRNA injection

[10] = target: T10, α6/3β2β3‐nAChR (Homo sapiens, UniProt P17787+P32297+Q05901+Q15825); assay type: cell-based
T10 construct: expressed in transfected cells; host or cells: Xenopus laevis oocytes, cRNA injection

[11] = read-out: k off, Unaltered α7β2‐nAChR, SEM
[12] = read-out: k on, Unaltered α7β2‐nAChR, SEM
[13] = ACh 10 μM – 10 mM, half‐log steps, 3 s, 60 s apart

T2 sequence (P36544 23-502 limits assumed): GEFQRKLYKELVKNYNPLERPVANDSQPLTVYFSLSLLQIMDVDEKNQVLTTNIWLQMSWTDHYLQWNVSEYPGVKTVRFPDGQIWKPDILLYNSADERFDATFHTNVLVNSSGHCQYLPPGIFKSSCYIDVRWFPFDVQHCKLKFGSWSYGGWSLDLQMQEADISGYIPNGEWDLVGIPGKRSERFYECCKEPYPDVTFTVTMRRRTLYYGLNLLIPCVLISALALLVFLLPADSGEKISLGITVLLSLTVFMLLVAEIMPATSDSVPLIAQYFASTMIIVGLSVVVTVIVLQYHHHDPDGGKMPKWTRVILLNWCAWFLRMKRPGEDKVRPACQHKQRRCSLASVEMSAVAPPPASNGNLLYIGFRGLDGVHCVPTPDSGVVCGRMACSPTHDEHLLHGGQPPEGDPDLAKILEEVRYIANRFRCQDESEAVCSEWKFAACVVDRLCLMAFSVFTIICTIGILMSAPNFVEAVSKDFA
T2 sequence (P17787 26-502 limits assumed): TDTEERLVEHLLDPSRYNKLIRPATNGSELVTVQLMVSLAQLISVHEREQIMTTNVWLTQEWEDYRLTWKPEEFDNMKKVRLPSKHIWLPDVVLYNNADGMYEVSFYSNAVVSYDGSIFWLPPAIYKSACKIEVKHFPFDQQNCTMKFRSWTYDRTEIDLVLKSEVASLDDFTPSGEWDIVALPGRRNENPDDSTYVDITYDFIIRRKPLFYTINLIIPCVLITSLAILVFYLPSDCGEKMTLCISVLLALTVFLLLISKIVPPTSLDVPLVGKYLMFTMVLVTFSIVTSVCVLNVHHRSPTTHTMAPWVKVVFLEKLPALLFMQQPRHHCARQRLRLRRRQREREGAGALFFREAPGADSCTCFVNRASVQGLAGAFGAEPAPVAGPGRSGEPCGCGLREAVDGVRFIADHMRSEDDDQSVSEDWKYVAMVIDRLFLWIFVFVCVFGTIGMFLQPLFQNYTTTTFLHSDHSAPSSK
T3 sequence (P36544 23-502 limits assumed): as the sequence (P36544 23-502 limits assumed) above
T4 sequence (P17787 26-502 K104T/F144Q): as the sequence (P17787 26-502 limits assumed) above, with K79T, F119Q counted along it
T4 sequence (P36544 23-502): as the sequence (P36544 23-502 limits assumed) above
T1 sequence (P17787 26-502 S133T/V136L/W145Y): as the sequence (P17787 26-502 limits assumed) above, with S108T, V111L, W120Y counted along it
T1 sequence (P36544 23-502): as the sequence (P36544 23-502 limits assumed) above
T6 sequence (P36544 23-502): as the sequence (P36544 23-502 limits assumed) above
T6 sequence (P17787 26-502 K104T/F144Q): as the sequence (P17787 26-502 limits assumed) above, with K79T, F119Q counted along it
T5 sequence (P36544 23-502): as the sequence (P36544 23-502 limits assumed) above
T5 sequence (P17787 26-502 S133T/V136L/W145Y): as the sequence (P17787 26-502 limits assumed) above, with S108T, V111L, W120Y counted along it
T8 sequence (Q9UGM1 26-479 limits assumed): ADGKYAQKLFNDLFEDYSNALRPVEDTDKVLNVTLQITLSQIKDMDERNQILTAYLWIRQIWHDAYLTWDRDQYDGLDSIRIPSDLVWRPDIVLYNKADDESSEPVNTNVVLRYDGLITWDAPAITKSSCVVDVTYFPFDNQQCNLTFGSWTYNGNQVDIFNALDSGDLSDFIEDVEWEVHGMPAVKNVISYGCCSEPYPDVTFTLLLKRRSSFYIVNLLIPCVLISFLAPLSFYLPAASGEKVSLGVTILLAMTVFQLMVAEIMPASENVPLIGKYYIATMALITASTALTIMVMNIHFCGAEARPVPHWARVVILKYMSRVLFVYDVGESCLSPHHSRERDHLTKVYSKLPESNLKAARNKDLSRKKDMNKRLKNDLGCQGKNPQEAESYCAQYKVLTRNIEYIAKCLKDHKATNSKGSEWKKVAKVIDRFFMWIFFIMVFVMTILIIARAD
T8 sequence (Q9GZZ6 25-450): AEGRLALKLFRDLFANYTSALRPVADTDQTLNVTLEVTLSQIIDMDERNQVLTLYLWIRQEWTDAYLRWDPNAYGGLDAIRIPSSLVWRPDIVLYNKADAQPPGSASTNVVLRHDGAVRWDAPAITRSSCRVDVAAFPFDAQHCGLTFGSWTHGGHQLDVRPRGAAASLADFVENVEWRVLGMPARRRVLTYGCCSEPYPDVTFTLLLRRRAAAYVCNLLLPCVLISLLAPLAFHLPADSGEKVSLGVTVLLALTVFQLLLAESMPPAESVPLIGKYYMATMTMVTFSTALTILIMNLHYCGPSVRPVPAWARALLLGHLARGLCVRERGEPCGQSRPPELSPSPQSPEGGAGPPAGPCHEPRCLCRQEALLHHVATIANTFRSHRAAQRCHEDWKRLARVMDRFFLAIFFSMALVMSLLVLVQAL
T10 sequence (P17787 26-502): as the sequence (P17787 26-502 limits assumed) above
T10 sequence (Q15825+P32297 fused with the stated changes): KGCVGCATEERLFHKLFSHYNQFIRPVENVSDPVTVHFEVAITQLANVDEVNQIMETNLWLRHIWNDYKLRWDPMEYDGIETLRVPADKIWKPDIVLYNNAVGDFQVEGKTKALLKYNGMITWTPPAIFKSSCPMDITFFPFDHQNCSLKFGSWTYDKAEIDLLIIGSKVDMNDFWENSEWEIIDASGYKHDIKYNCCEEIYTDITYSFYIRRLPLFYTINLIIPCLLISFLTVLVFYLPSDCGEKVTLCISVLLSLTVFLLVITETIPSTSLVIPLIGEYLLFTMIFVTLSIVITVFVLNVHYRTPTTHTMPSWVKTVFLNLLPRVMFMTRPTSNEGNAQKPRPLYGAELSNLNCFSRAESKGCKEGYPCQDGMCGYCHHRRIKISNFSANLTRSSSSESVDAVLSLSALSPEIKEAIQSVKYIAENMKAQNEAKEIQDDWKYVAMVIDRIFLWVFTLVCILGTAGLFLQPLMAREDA
T10 sequence (Q05901 25-458): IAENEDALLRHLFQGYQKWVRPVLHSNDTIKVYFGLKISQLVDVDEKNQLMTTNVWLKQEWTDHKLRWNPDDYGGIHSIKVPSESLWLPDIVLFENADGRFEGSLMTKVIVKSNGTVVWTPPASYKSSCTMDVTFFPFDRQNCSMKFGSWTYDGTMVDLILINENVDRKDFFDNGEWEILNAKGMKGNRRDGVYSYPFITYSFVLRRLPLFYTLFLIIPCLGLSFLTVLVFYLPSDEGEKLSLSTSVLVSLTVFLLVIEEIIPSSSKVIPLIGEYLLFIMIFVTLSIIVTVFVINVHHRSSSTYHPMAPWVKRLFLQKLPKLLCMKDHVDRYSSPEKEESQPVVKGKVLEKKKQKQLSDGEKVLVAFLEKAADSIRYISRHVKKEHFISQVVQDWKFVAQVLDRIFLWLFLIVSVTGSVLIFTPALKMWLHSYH
T9 sequence (P17787 26-502): as the sequence (P17787 26-502 limits assumed) above
T9 sequence (P32297 32-505): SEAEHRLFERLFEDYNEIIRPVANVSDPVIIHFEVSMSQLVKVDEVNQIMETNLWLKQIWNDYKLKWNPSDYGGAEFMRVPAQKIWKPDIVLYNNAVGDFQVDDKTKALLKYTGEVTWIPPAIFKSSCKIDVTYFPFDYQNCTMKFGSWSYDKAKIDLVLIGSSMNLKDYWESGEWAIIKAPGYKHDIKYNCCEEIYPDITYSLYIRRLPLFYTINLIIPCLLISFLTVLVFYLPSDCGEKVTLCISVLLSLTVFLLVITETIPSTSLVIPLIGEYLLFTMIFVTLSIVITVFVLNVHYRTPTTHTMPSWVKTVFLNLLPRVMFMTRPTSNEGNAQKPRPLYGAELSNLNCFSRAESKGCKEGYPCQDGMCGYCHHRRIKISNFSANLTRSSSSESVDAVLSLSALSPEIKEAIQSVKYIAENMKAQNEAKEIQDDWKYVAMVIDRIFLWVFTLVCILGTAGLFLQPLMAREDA
T7 sequence (P30926 22-498): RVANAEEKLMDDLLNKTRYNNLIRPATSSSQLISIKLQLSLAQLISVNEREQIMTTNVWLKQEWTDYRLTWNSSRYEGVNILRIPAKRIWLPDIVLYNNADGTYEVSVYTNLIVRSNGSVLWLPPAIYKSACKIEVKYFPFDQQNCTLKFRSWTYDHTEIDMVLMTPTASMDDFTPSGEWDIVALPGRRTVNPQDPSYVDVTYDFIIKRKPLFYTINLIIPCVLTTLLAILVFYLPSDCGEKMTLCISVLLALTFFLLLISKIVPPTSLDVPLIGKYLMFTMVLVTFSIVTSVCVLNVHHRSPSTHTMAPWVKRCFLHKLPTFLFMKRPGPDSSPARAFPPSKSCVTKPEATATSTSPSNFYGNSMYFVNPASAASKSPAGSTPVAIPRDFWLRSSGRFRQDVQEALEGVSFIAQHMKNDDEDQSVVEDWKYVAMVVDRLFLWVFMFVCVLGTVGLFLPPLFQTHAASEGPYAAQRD
T7 sequence (P32297 32-505): as the sequence (P32297 32-505) above

For `CC(C)C[C@@H]1NC(=O)[C@H](Cc2ccccc2)NC(=O)[C@@H]2CSSC[C@H](NC(=O)CN)C(=O)N[C@@H](CSSC[C@@H](C(N)=O)NC(=O)[C@H](Cc3ccc(O)cc3)NC(=O)[C@H](CC(=O)O)NC(=O)[C@@H]3CCCN3C(=O)[C@H](CC(N)=O)NC(=O)[C@H](CC(N)=O)NC1=O)C(=O)N[C@@H](CCCNC(=N)N)C(=O)N[C@@H](Cc1c[nH]cn1)C(=O)N1CCC[C@H]1C(=O)N1CCC[C@H]1C(=O)N2` [[S4R]], the Kd [1] was 5.31 ± 1.04 nM, the koff [1] was 0.000232 s⁻¹ and the kon [1] was 45500 M⁻¹ s⁻¹. It also gave a Kd ([2]; K d α7β2, SEM) of 0.83 ± 0.05 nM, a Kd ([2]; K d, Unaltered α7β2‐nAChR, SEM) of 1.9 ± 0.21 nM and a koff ([2]; read-out: k off α7β2, SEM) of 9.33e-05 s⁻¹. For the same compound, the koff [2, 11] was 0.000124 s⁻¹, the kon ([2]; read-out: k on α7β2, SEM) was 112000 M⁻¹ s⁻¹ and the kon [2, 12] was 67500 M⁻¹ s⁻¹. The Kd [3] was 15 ± 6 nM, the koff [3] was 0.000597 s⁻¹ and the kon [3] was 56700 M⁻¹ s⁻¹. It also gave a Kd [4] of 6.74 ± 2.67 nM, a koff [4] of 0.000255 s⁻¹ and a kon [4] of 64300 M⁻¹ s⁻¹.
For `CC(=O)OCC[N+](C)(C)C` [ACh, acetylcholine], the “Imax, maximum function induced by ACh, inner pocket α7β2‐nAChR” value [5, 13] was 1539 ± 193 nA, the “hillslope (nH), inner pocket α7β2‐nAChR” value ([5]; logistic fit per oocyte) was 0.93 ± 0.06 and the “Imax, maximum function induced by ACh, outer pocket α7β2‐nAChR” value [6, 13] was 1401 ± 137 nA. For the same compound, the “hillslope (nH), outer pocket α7β2‐nAChR” value ([6]; logistic fit per oocyte) was 1.17 ± 0.12.
`CC(C)C[C@@H]1NC(=O)[C@H](Cc2ccccc2)NC(=O)[C@@H]2CSSC[C@H](NC(=O)CN)C(=O)N[C@@H](CSSC[C@@H](C(N)=O)NC(=O)[C@H](Cc3ccc(O)cc3)NC(=O)[C@H](CC(=O)O)NC(=O)[C@@H]3CCCN3C(=O)[C@H](Cc3c[nH]cn3)NC(=O)[C@H](CC(N)=O)NC1=O)C(=O)N[C@@H](CO)C(=O)N[C@@H](Cc1c[nH]cn1)C(=O)N1CCC[C@H]1C(=O)N1CCC[C@H]1C(=O)N2` [[N12H]] showed a Kd ([2]; K d α7β2, SEM) of 13 ± 2 nM, a koff ([2]; read-out: k off α7β2, SEM) of 0.000308 s⁻¹ and a kon ([2]; read-out: k on α7β2, SEM) of 24500 M⁻¹ s⁻¹. It also gave a Kd [3] of 81 ± 19 nM, a koff [3] of 0.0011 s⁻¹ and a kon [3] of 18300 M⁻¹ s⁻¹.
Work on `CC(C)C[C@@H]1NC(=O)[C@H](CC(C)C)NC(=O)[C@@H]2CSSC[C@H](NC(=O)CN)C(=O)N[C@@H](CSSC[C@@H](C(N)=O)NC(=O)[C@H](Cc3ccc(O)cc3)NC(=O)[C@H](CC(=O)O)NC(=O)[C@@H]3CCCN3C(=O)[C@H](CC(N)=O)NC(=O)[C@H](CC(N)=O)NC1=O)C(=O)N[C@@H](CO)C(=O)N[C@@H](Cc1c[nH]cn1)C(=O)N1CCC[C@H]1C(=O)N1CCC[C@H]1C(=O)N2` [[F9L]] yielded a Kd ([2]; K d α7β2, SEM) of 15 ± 2 nM, a koff ([2]; read-out: k off α7β2, SEM) of 0.000292 s⁻¹ and a kon ([2]; read-out: k on α7β2, SEM) of 20500 M⁻¹ s⁻¹. It also gave a Kd [3] of 20 ± 3 nM, a koff [3] of 0.000637 s⁻¹ and a kon [3] of 32800 M⁻¹ s⁻¹. For the same compound, the “block of ACh‐induced function, α3β4‐nAChR” value [7] was greater than 90%.
For `NCC(=O)N[C@H]1CSSC[C@@H]2NC(=O)[C@@H]3CCCN3C(=O)[C@@H]3CCCN3C(=O)[C@H](Cc3c[nH]cn3)NC(=O)[C@H](CO)NC(=O)[C@H](CSSC[C@@H](C(N)=O)NC(=O)[C@H](Cc3ccc(O)cc3)NC(=O)[C@H](CC(=O)O)NC(=O)[C@@H]3CCCN3C(=O)[C@H](CC(N)=O)NC(=O)[C@H](CC(N)=O)NC(=O)[C@H](Cc3ccc(O)cc3)NC(=O)[C@H](Cc3ccccc3)NC2=O)NC1=O` [[L10Y]], the Kd [1] was 24 ± 3 nM, the koff [1] was 0.000537 s⁻¹ and the kon [1] was 21700 M⁻¹ s⁻¹. The IC50 [8] was greater than 300 nM, the Kd ([2]; K d α7β2) was 1 to 2 nM and the Kd ([2]; K d α7β2, SEM) was 12 ± 3 nM. It also gave a Kd ([2]; K d, Unaltered α7β2‐nAChR, SEM) of 20 ± 4 nM, a koff ([2]; read-out: k off α7β2, SEM) of 0.000462 s⁻¹ and a koff [2, 11] of 0.000508 s⁻¹. For the same compound, the kon ([2]; read-out: k on α7β2, SEM) was 50200 M⁻¹ s⁻¹, the kon [2, 12] was 30700 M⁻¹ s⁻¹ and the Kd [3] was 671 ± 136 nM. It also gave a koff [3] of 0.0044 s⁻¹, a kon [3] of 6670 M⁻¹ s⁻¹ and a Kd [4] of 28 ± 4 nM. For the same compound, the koff [4] was 0.00064 s⁻¹ and the kon [4] was 24000 M⁻¹ s⁻¹.
For `CC(C)C[C@@H]1NC(=O)[C@H](Cc2ccccc2)NC(=O)[C@@H]2CSSC[C@H](NC(=O)CN)C(=O)N[C@@H](CSSC[C@@H](C(N)=O)NC(=O)[C@H](Cc3ccc(O)cc3)NC(=O)[C@H](CCC(=O)O)NC(=O)[C@@H]3CCCN3C(=O)[C@H](CC(N)=O)NC(=O)[C@H](CC(N)=O)NC1=O)C(=O)N[C@@H](CO)C(=O)N[C@@H](Cc1c[nH]cn1)C(=O)N1CCC[C@H]1C(=O)N1CCC[C@H]1C(=O)N2` [[D14E]], the Kd ([2]; K d α7β2, SEM) was 1.4 ± 0.3 nM, the koff ([2]; read-out: k off α7β2, SEM) was 6e-05 s⁻¹ and the kon ([2]; read-out: k on α7β2, SEM) was 49500 M⁻¹ s⁻¹. The Kd [3] was 2 ± 0.6 nM, the koff [3] was 0.000111 s⁻¹ and the kon [3] was 57500 M⁻¹ s⁻¹.
`CC(C)C[C@@H]1NC(=O)[C@H](Cc2ccccc2)NC(=O)[C@@H]2CSSC[C@H](NC(=O)CN)C(=O)N[C@@H](CSSC[C@@H](C(N)=O)NC(=O)[C@H](CC(=O)O)NC(=O)[C@H](CC(=O)O)NC(=O)[C@@H]3CCCN3C(=O)[C@H](CC(N)=O)NC(=O)[C@H](CC(N)=O)NC1=O)C(=O)N[C@@H](CO)C(=O)N[C@@H](Cc1c[nH]cn1)C(=O)N1CCC[C@H]1C(=O)N1CCC[C@H]1C(=O)N2` [[Y15D]] was tested, and the “block of ACh‐induced function, α3β2‐nAChR” value [9] was “≈ 50%”, the “block of ACh‐induced function, α6/3β2β3‐nAChR” value [10] was “≈ 35%” and the Kd ([2]; K d α7β2, SEM) was 9.9 ± 2.1 nM. The koff ([2]; read-out: k off α7β2, SEM) was 0.000298 s⁻¹, the kon ([2]; read-out: k on α7β2, SEM) was 43300 M⁻¹ s⁻¹ and the Kd [3] was 27 ± 3 nM. The koff [3] was 0.00112 s⁻¹ and the kon [3] was 54800 M⁻¹ s⁻¹.
